“Also recorded” adds a separate entry of the source.
What was measured:
Primo 2CS cells = assay: Glycerophosphate dehydrogenase (GPDH) activity during adipocyte differentiation of Primo 2CS cells; type: cell-based; settings: Primo 2CS cells T22 in the presence of human bFGF; after 13 days of differentiation (3 experiments); control 22
Experimental: (§1) The confluent cells are incubated in a DMEM/Ham's F12 (vol/vol, 1:1) medium supplemented with 100 U/ml of penicillin, 100 μg/ml of streptomycin, 5 μg/ml of human insulin (Sigma), 10 μg/ml of human transferrin (Sigma), 1 μM of PPAR activator (for example BRL49653), 100 to 250 μM of isobutyl-methylxanthine (IBMX) and 1 μM of dexamethasone. 48 to 72 hours later, this medium is replaced by the medium described above but containing no IBMX and dexamethasone. This differentiation medium is replaced every 2-3 days for a period of 15 to 20 days corresponding to an optimum adipocyte differentiation. Firstly, the cells which are to have the GPDH activity measure, are lysed. […] The reading is made with a spectrophotometer, allowing kinetic measurements to be carried out (KONTRON Uvicon 860 thermostatted at 37° C.).

Primo 2CA cells = assay: Glycerophosphate dehydrogenase (GPDH) activity during adipocyte differentiation of Primo 2CA cells; type: cell-based; settings: Primo 2CA cells T24 in the presence of human bFGF
Experimental: as §1

[1] = test system: adipocytes obtained from Primo 2CA T32 cells; assay: Lipolysis test (glycerol liberated by adipocytes in the presence of adrenergic receptor agonists); type: cell-based, human; settings: adipocytes from Primo 2CA T32 cells (about 140 population doublings); control 5.76
Experimental: Lipolyses were carried out on adipocytes obtained from Primo 2CA T32 cells (about 140 population doublings), with agonists specific for different β-adrenergic receptors.
This test consists of measuring the radiolabelled glycerol liberated by adipocytes in the presence of adrenergic receptor agonists. The method used is that described by Bradley D C and Kaslow H R (Anal Biochem, 1989, 180, 11-16). The glycerol liberated is phosphorylated in the presence of glycerokinase and ATP and ATP labeled with ^32P in the […]. The residual ATP is then hydrolyzed in an acid medium at 90° C. and precipitated with ammonium molybdate and triethylamine. The radioactivity incorporated in the form of glycerophosphate labelled with ^32P is estimated by counting in a β counter and the values are expressed in pmol using a calibration curve.
Lipolyses were carried out on Primo 2CA T32 cells with specific agonists for the different β adrenergic receptors, namely: • Isoproterenol: β1, β2 adrenergic • Dobutamine: β1 adrenergic • Terbutaline: β2 adrenergic • CL316243 β3 adrenergic: […]

[2] = test system: stem cells of the invention; assay: Effect of Leukemia Inhibitory Factor on morphology and proliferation of the stem cells; type: cell-based, human; settings: LIF 10 ng/ml
Experimental: For this enrichment step, different culture media were tested.

CA population = assay: Effect of bFGF on proliferation of the quiescent CA population; type: cell-based, human
Experimental: The addition of growth factors such as bFGF incorporated, for example, at a concentration of about 3 to 20 ng/ml of medium, in particular 5 to 10 ng/ml, not only halves the population doubling time (for example the population doubling time without bFGF is about 72 hours, while it is about 36 hours with bFGF), but also allows the population to reach confluence. Without growth factors, proliferation of a quiescent population of stem cells of the invention can be provoked by trypsination and dilution, but proliferation will spontaneously stop at about 70% confluence. Since confluence is indispensable in vitro for initiating the differentiation of many cell types, the use of growth factors such as bFGF must be envisaged for in vitro production of this type of differentiated cell.
These observations confirm the quiescent state of the CA population and the state of senescence in the CS population.
After establishing a population of quiescent CA cells, human bFGF (basic Fibroblast Growth Factor) is added to the culture medium described above in a concentration of 5 ng/ml of medium.

CS population = assay: Effect of bFGF on proliferation of the CS population at late stages; type: cell-based, human; settings: bFGF 5 ng/ml, after 50 population doublings

For `CN(CCOc1ccc(CC2SC(=O)NC2=O)cc1)c1ccccn1` (stereo not shown) [BRL49653], the GPDH activity (Primo 2CS cells) was 30 nmol/min/mg of protein, the GPDH activity (Primo 2CA cells; after 11 days of differentiation (2 experiments), control 77) was 290 nmol/min/mg of protein and the GPDH activity (Primo 2CA cells; after 16 days of differentiation (3 experiments), control 20) was 390 nmol/min/mg of protein.

For `C[C@H](Cc1ccc2c(c1)OC(C(=O)[O-])(C(=O)[O-])O2)NC[C@H](O)c1cccc(Cl)c1.[Na+].[Na+]` [CL316243], the lipolysis rate [1] was 17.1 nmol/h/mg of protein.

`CC(CCc1ccc(O)cc1)NCCc1ccc(O)c(O)c1` (stereo not shown) [Dobutamine] was tested, and the lipolysis rate [1] was 60.1 nmol/h/mg of protein.

In the case of `CC(C)(C)NCC(O)c1cc(O)cc(O)c1` (stereo not shown) [Terbutaline], the lipolysis rate [1] is reported as 93.78 nmol/h/mg of protein.

For LIF: Leukemia Inhibitory Factor, the “effect on morphology or proliferation of the cells” value [2] was “no change in the morphology or proliferation; also recorded: no changes in morphology or proliferation”.

With “bFGF: human basic Fibroblast Growth Factor” the “effect on proliferation of CA population” value (CA population; bFGF 5 ng/ml, late stages, after 50 population doublings) was “effectively respond”, the population doubling time (CA population; with bFGF (about 3 to 20 ng/ml), about 72 hours without bFGF) was “about 36 hours” and the “effect on proliferation of CS population” value (CS population) was “no significant effect; also recorded: practically no effect”.

Reference: patent publication US8334135B2, “Stem cells from adipose tissue, and differentiated cells from said cells” (Yves Saint Laurent Parfums, priority 2002, dated 2012)
